Experimental findings from patent US20030013140A1, “Method of detecting ligand or ligand-like low-molecular weight compound” (priority 2000, published 2003) are described below.

What all share (type): cell-based
Assay [1] addresses T1, human IL-10 receptor (BAF/hIL-10R cell line) (Homo sapiens, UniProt Q13651).
T1 construct: expressed in transfected cells; host or cells: BAF/B03 (mouse IL-3-dependent pro-B cell line), vector pIRESpuro
T1 sequence (Q13651 22-578): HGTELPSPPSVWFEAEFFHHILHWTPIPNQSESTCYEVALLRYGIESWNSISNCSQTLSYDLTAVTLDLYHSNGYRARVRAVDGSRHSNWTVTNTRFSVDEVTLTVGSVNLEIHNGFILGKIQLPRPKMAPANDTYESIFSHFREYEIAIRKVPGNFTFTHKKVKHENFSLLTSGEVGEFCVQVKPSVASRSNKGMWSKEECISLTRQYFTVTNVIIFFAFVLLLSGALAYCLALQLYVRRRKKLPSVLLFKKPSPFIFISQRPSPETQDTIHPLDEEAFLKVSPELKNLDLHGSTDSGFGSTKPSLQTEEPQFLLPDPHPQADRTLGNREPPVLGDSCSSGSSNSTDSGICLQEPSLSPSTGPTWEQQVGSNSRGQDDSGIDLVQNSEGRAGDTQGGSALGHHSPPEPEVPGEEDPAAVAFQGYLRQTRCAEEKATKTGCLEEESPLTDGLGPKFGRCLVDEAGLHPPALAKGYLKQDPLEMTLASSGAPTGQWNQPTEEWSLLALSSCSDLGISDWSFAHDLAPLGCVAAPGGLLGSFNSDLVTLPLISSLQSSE
T1 sequence (Q61190 20-349 partner): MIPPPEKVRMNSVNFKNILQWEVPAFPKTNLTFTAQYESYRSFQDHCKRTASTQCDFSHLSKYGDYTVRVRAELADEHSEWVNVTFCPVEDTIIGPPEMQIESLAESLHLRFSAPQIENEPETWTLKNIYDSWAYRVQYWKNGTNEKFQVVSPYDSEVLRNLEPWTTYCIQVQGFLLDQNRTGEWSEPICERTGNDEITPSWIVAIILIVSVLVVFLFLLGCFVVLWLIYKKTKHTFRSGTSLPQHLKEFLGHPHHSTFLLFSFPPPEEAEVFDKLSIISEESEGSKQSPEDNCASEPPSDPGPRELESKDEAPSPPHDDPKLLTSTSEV
The assay is described as follows: Cytoproliferative activity of the human IL-10-dependent cell line BAF/hIL-10R (WST-1/1-methoxy PMS, 450 nm). Particulars: 2-mercaptoethanol 5×10^-5 M vs medium alone; marked differences at rhIL-10 10, 100 and 1,000 ng/mL; FIG. 6. The procedure:
Upon determining cytoproliferative activity, a cell line transfected with the human IL-10 receptor gene (BAF/hIL-10R) was recovered and, subsequent to its washing with PBS(−), was suspended in DMEM medium ((−)FCS). The cells were prepared at 5×10^4 cells/well on a 96-well plate. To the individual wells, rhIL-10 was added at 0, 0.0001, 0.001, 0.01, 0.1, 1, 10, 100 or 1,000 ng/mL, respectively, followed by incubation at 5% CO2 and 37° C. for 48 hours. Subsequent to the incubation, the WST-1/1-methoxy PMS solution (product of Dojindo Laboratories) was added (final concentration: 5 mM), and a staining reaction was then conducted in a CO2 incubator. After the reaction, measurement was conducted at a measurement wavelength of 450 nm.
With respect to the cell line (BAF/hIL-10R) obtained in Example 2 with the human IL-10 receptor gene introduced therein, effects which may be given to its screening by the existence of a reducing agent (2-mercaptoethanol) was investigated as will be described next. Firstly, two culture media were provided, one being a culture medium obtained by adding 2-mercaptoethanol at 5×10^−5 M to DMEM medium ((−)FCS) and the other consisting solely of DMEM medium ((−)FCS) without addition of the reducing agent. […]
(In general: Tetrazolium assays rely on reduction of a dye to a coloured formazan, in cell work by metabolically active cells.)

The target in assay [2] is T2, human G-CSF receptor (BAF/hGCSFR cell line) (Homo sapiens, UniProt Q99062).
T2 construct: expressed in transfected cells; host or cells: BAF/B03 (mouse IL-3-dependent pro-B cell line), vector pIRESpuro
T2 sequence (Q99062 25-836): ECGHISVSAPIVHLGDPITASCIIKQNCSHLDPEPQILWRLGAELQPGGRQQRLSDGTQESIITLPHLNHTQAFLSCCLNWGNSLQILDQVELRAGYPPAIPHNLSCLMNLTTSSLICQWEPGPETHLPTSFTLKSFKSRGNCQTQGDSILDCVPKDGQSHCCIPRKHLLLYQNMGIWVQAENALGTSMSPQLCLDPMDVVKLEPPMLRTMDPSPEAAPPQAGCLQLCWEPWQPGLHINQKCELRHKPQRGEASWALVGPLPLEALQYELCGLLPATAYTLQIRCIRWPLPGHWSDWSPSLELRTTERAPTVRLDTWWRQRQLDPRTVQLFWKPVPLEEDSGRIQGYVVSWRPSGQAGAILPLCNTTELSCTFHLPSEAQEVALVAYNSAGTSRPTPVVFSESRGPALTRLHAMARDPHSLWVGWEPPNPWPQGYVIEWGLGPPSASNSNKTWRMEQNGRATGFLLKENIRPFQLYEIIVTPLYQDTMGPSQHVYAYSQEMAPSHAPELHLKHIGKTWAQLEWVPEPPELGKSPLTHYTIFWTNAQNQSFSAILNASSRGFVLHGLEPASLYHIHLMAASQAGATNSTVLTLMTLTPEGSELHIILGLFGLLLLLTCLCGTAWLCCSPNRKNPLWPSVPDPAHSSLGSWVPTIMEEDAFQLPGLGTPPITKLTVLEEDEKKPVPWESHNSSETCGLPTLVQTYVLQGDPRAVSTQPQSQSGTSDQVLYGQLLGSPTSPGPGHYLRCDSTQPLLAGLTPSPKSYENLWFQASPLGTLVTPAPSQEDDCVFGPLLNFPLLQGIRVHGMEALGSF
In words: Cytoproliferative activity of the human G-CSF-dependent cell line BAF/hGCSFR (WST-1/1-methoxy PMS, 450 nm). On the procedure: Upon determining cytoproliferative activity, a cell line transfected with the human G-CSF receptor gene (BAF/hGCSFR) was recovered and, subsequent to its washing with PBS(−), was suspended in DMEM medium ((−)FCS). The cells were prepared at 5×10^4 cells/well on a 96-well plate. To the individual wells, rhG-CSF was added at 0, 0.025, 0.1, 0.4, 1.6 or 6.4 ng/mL, respectively, followed by incubation at 5% CO2 and 37° C. for 48 hours. Subsequent to the incubation, a WST-1/1-methoxy PMS solution (product of Dojindo Laboratories) was added to the individual wells (final concentration: 5 mM), and a staining reaction was then conducted in a CO2 incubator. After the reaction, measurement was conducted at a measurement wavelength of 450 nm.
With respect to the cell line (BAF/hGCSFR) obtained in Example 1 with the human G-CSF receptor gene introduced therein, effects which may be given to its screening by the existence of a reducing agent (2-mercaptoethanol) was investigated as will be described next. Firstly, two culture media were provided, one being a culture medium obtained by adding 2-mercaptoethanol at 5×10^−5 M to DMEM medium ((−)FCS) and the other consisting solely of DMEM medium ((−)FCS) without incorporation of the additives. […]

The target of assay [3] is T3, human EPO receptor (BAF/hEPOR cell line) (Homo sapiens, UniProt P19235).
T3 construct: expressed in transfected cells; host or cells: BAF/B03 (mouse IL-3-dependent pro-B cell line), vector pIRESpuro; cDNA from a human erythroid leukemia cell line
T3 sequence (P19235 25-508): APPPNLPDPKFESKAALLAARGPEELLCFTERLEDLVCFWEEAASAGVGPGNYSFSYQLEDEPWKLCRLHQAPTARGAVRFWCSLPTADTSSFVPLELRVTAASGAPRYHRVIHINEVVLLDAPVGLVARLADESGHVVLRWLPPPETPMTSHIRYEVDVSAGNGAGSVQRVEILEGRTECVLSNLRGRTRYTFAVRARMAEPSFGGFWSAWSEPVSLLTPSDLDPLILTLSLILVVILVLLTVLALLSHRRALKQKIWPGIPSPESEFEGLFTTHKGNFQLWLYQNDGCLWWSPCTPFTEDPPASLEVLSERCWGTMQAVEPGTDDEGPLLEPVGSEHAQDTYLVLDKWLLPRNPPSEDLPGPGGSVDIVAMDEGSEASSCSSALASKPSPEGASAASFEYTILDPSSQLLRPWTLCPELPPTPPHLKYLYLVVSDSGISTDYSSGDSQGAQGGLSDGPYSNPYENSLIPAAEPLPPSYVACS
In words: Cytoproliferative activity of the human EPO-dependent cell line BAF/hEPOR (WST-1/1-methoxy PMS, 450 nm). The following applies: 2-mercaptoethanol 5×10^-5 M vs medium alone; FIG. 9.
Description: Upon determining cytoproliferative activity, a cell line transfected with the human EPO receptor gene (BAF/hEPOR) was recovered and, subsequent to its washing with PBS(−), was suspended in DMEM medium ((−)FCS). The cells were prepared at 5×10^4 cells/well on a 96-well plate. […] Subsequent to the incubation, a WST-1/1-methoxy PMS solution (product of Dojindo Laboratories) was added to the individual wells (final concentration: 5 mM), and a staining reaction was then conducted in a CO2 incubator. After the reaction, measurement was conducted at a measurement wavelength of 450 nm.
With respect to the cell line (BAF/hEPOR) obtained in Example 8 with the human EPO receptor gene introduced therein, effects which may be given to its screening by the existence of a reducing agent (2-mercaptoethanol) was investigated as will be described next. Firstly, two culture media were provided, one being a culture medium obtained by adding 2-mercaptoethanol at 5×10^−5 M to DMEM medium ((−)FCS) and the other consisting solely of DMEM medium ((−)FCS) without addition of the reducing agent. Those culture media were poured into individual wells of 96-well plates, respectively, and BAF/hEPOR which had been washed with PBS(−) was suspended at 5×10^4 cells/well. […]

As for `OCCS` [2-mepcaptoethanol, 2-mercaptoethanol], the “effect of reducing agent on cytoproliferation of BAF/hIL-10R in the presence of rhIL-10” value in assay [1] was “enhanced”. Moreover, the “effect of reducing agent on cytoproliferation of BAF/hG-CSFR in the presence of rhG-CSF” value in assay [2] (2-mercaptoethanol 5×10^-5 M vs medium alone, marked differences at rhG-CSF 0.1, 0.4, 1.6 and 6.4 ng/mL, FIG. 3) is “enhanced”. In addition, in assay [3], the “effect of reducing agent on cytoproliferation of BAF/hEPOR in the presence of rhEPO” value was “enhanced”.
Take `c1ccc(C23N=C(Nc4nc5ccccc5[nH]4)NC2(c2ccccn2)NC(Nc2nc4ccccc4[nH]2)=N3)nc1` (stereo not shown) [SB247464, reference compound]: in assay [2] (WEHIsup 1.25% with 2-mercaptoethanol 5×10^-5 M vs medium alone, SB247464 0 to 10^-6 M, marked differences at 10^-8, 10^-9 and 10^-10, FIG. 5), the “cytoproliferation of BAF/hG-CSFR in the presence of SB247464 on addition of WEHI sup to the culture medium” value was “enhanced”.
